Measured values from ChEMBL document CHEMBL1781997, “Anticonvulsant 4-aminobenzenesulfonamide derivatives with branched-alkylamide moieties: X-ray crystallography and inhibition studies of human carbonic anhydrase isoforms I, II, VII, and XIV” (J Med Chem, 2011).

How the values were obtained:
Carbonic anhydrase 1 = Carbonic anhydrase 1 (Homo sapiens, UniProt P00915)
Description: Inhibition of human carbonic anhydrase 1 preincubated with compound for 15 mins by carbon dioxide hydration assay

Carbonic anhydrase 2 = Carbonic anhydrase 2 (Homo sapiens, UniProt P00918)
Description: Inhibition of human carbonic anhydrase 2 preincubated with compound for 15 mins by carbon dioxide hydration assay

Carbonic anhydrase 7 = Carbonic anhydrase 7 (Homo sapiens, UniProt P43166)
Description: Inhibition of human carbonic anhydrase 7 preincubated with compound for 15 mins by carbon dioxide hydration assay

Carbonic anhydrase 14 = Carbonic anhydrase 14 (Homo sapiens, UniProt Q9ULX7)
Description: Inhibition of human carbonic anhydrase 14 preincubated with compound for 15 mins by carbon dioxide hydration assay

Rattus norvegicus = experiment: Anticonvulsant activity against maximal electroshock-induced seizures in po dosed rat; format: functional

Chain of Carbonic anhydrase 7 (P43166 whole entry): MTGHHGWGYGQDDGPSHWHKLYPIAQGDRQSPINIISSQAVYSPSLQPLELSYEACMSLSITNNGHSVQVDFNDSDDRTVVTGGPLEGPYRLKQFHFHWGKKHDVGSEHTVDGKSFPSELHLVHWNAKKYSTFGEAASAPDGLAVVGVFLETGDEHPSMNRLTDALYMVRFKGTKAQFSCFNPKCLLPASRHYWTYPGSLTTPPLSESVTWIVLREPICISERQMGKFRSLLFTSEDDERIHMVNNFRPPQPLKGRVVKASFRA
Chain of Carbonic anhydrase 14 (Q9ULX7 whole entry): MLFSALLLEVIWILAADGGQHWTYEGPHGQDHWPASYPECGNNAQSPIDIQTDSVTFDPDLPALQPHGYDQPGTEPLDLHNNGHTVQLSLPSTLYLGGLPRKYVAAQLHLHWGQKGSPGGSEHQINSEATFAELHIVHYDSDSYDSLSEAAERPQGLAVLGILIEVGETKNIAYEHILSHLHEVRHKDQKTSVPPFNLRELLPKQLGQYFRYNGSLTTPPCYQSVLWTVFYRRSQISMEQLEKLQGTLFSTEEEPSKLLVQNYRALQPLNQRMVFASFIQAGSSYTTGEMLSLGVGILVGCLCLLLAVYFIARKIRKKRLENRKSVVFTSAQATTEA
Chain of Carbonic anhydrase 1 (P00915 whole entry): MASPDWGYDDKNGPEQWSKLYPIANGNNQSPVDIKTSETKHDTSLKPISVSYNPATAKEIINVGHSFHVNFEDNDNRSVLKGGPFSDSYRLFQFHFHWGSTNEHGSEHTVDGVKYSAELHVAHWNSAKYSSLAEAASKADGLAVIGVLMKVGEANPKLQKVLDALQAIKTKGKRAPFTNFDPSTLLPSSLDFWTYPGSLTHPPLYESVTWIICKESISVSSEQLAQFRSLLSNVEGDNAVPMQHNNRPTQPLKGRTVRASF

CCC(CC)C(=O)NCCc1ccc(S(N)(=O)=O)cc1
Ki (Carbonic anhydrase 1): 407 nM | Ki (Carbonic anhydrase 2): 33.8 nM | Ki (Carbonic anhydrase 7): 51 nM | Ki (Carbonic anhydrase 14): 684 nM

CCC(CC(C)C)C(=O)Nc1ccc(S(N)(=O)=O)cc1 (configuration not stated)
ED50 (Rattus norvegicus): 56 µmol/kg

CCC(CC)C(=O)Nc1ccc(S(N)(=O)=O)cc1
ED50 (Rattus norvegicus): 37 µmol/kg

CCCC(CC)C(=O)Nc1ccc(S(N)(=O)=O)cc1 (configuration not stated)
ED50 (Rattus norvegicus): 41 µmol/kg

CCCC(C(=O)Nc1ccc(S(N)(=O)=O)cc1)C(C)C (configuration not stated)
ED50 (Rattus norvegicus): 139 µmol/kg

CCCC(C(=O)Nc1ccc(S(N)(=O)=O)cc1)C(C)CC (configuration not stated)
ED50 (Rattus norvegicus): 115 µmol/kg

CCC(C)CC(=O)Nc1ccc(S(N)(=O)=O)cc1 (configuration not stated)
ED50 (Rattus norvegicus): 61 µmol/kg

CCCCC(CC)C(=O)Nc1ccc(S(N)(=O)=O)cc1 (configuration not stated)
ED50 (Rattus norvegicus): 80 µmol/kg

CC(C)C(C(=O)Nc1ccc(S(N)(=O)=O)cc1)C(C)(C)C (configuration not stated)
ED50 (Rattus norvegicus): 58 µmol/kg

CC(C)(C)CC(=O)Nc1ccc(S(N)(=O)=O)cc1
ED50 (Rattus norvegicus): 35 µmol/kg

CCCC(C)C(=O)Nc1ccc(S(N)(=O)=O)cc1 (configuration not stated)
ED50 (Rattus norvegicus): 40 µmol/kg | Ki (Carbonic anhydrase 1): 1710 nM | Ki (Carbonic anhydrase 2): 220 nM | Ki (Carbonic anhydrase 7): 605 nM | Ki (Carbonic anhydrase 14): 644 nM

CCC(C)C(=O)Nc1ccc(S(N)(=O)=O)cc1 (configuration not stated)
ED50 (Rattus norvegicus): 30 µmol/kg

CC(C)(C)C(=O)Nc1ccc(S(N)(=O)=O)cc1
ED50 (Rattus norvegicus): 165 µmol/kg

NS(=O)(=O)c1ccc(NC(=O)Cc2ccccc2)cc1
ED50 (Rattus norvegicus): 55 µmol/kg | Ki (Carbonic anhydrase 1): 7.6 nM | Ki (Carbonic anhydrase 7): 52 nM | Ki (Carbonic anhydrase 14): 46 nM

CCC(CC)C(=O)NCc1ccc(S(N)(=O)=O)cc1
ED50 (Rattus norvegicus): 87 µmol/kg

CC1(C)O[C@@H]2[C@@H](CO[C@@]3(COS(N)(=O)=O)OC(C)(C)O[C@@H]23)O1 [TOPIRAMATE]
ED50 (Rattus norvegicus): 10 µmol/kg

NS(=O)(=O)Cc1noc2ccccc12 [ZONISAMIDE]
ED50 (Rattus norvegicus): 100 µmol/kg
